Experimental data taken from BigSolDB 2.1.

O=C(O)CN(CC(=O)O)CP(=O)(O)O
solubility (mole fraction)
Conditions | 293.15 K | 298.15 K | 303.15 K | 308.15 K | 313.15 K | 318.15 K | 323.15 K | 328.15 K | 333.15 K | 343.15 K
in acetone | 0.000176 | 0.000227 | 0.000273 | 0.000352 | 0.000445 | 0.000543 | – | – | – | –
in ethanol | – | 3.2e-05 | 7.85e-05 | 0.000102 | 0.000139 | 0.000196 | 0.000359 | – | 0.000733 | 0.00176
in ethyl acetate | 0.000528 | 0.000627 | 0.000791 | 0.000906 | 0.00138 | 0.00153 | 0.00176 | – | 0.00263 | 0.00419
in isopropanol | – | 4.94e-05 | 8.19e-05 | 0.000128 | 0.000248 | 0.000344 | 0.000648 | 0.000898 | 0.00131 | 0.00286
in methanol | – | – | 6.27e-05 | 8.57e-05 | 0.000118 | 0.000168 | 0.000243 | 0.000407 | 0.000588 | –
in n-butanol | 0.000113 | 0.000148 | 0.000186 | 0.000246 | 0.000299 | 0.000387 | 0.000831 | – | 0.00159 | 0.00342
in n-hexanol | 0.000966 | 0.00107 | 0.00116 | 0.00137 | 0.00155 | 0.00197 | 0.00233 | – | 0.00337 | 0.00499
in n-pentanol | 0.000125 | 0.000149 | 0.000186 | 0.00023 | 0.000377 | 0.000583 | 0.00105 | – | 0.00195 | 0.00392
in toluene | 0.00035 | 0.000386 | 0.000427 | 0.000645 | 0.00084 | 0.000991 | 0.00157 | – | 0.00248 | 0.0039
